# According to paper PMC8297402, “Trifluoromethyl-substituted 3,5-bis(arylidene)-4-piperidones as potential anti-hepatoma and anti-inflammation agents by inhibiting NF-кB activation” (Journal of Enzyme Inhibition and Medicinal Chemistry, 2021):
# Values joined by “and” are separate entries in the source; they are usually repeats but may differ in a detail not shown here. Identical values can stand only once. Like-named read-outs stand apart in the source and are kept apart here.
# Legend:
# A549 = assay: Modified MTT cytotoxicity assay, A549; settings: for SI (selectivity index) A549: quotient of IC50 for normal (HHL-5) and malignant (A549) cells
# LO2 = assay: Modified MTT cytotoxicity assay, normal heptical cell line LO2; type: cell-based, human; settings: 24 h incubation
# Procedure: (§1) The HepG2, SMMC-7721, and LO2 cell lines were maintained at 37 °C, 5% humidified CO2, and 95% atmosphere. Dulbecco's Modified Eagle (DMEM) medium containing 10% foetal bovine serum (FBS) was used for culturing the HepG2 cell line; meanwhile, Roswell Park Memorial Institute (RPMI) 1640 medium containing 10% FBS was used for culturing other cell lines (SMMC-7721, LO2). The HepG2, SMMC-7721 and LO2 cells were seeded in a 96-well plate in 200 μL of medium per well at a density of approximately 8 × 10^3 cells/well and cultured for 24 h, followed by incubation in an incubator of indicated compounds with successive concentrations (10, 5, 2.5, 1.25, 0.625, 0.3125 μg/mL) for 24 h. In the control group, cells were only cultured with culture media. After the media were removed, 20 μL of MTT (5 mg/mL) was added, then cells were incubated for 4 h at 37 °C. […] GraphPad Prism 5 software was used to calculate their IC50 values. Every IC50 value was the average of three replicates. Doxorubicin (DOX) and curcumin were used as positive controls.
# HHL-5 = assay: Modified MTT cytotoxicity assay, normal heptical cell line HHL-5; settings: read-out: Cytotoxicity IC50 HHL-5; MTT, normal heptical cell line
# RAW264.7 cell = assay: MTT toxicity pre-experiment on RAW264.7 macrophagocyte; type: cell-based, mouse; settings: for Survival rate RAW264.7 cell: BAPs 5 μM; for viability at 5 µM: Mus musculus, RAW264.7, BAPs 5 μM, read-out: Survival rate RAW264.7 cell
# Procedure: Lipopolysaccharide (LPS) is a key constituent of Gram-negative bacterial endotoxin, which is used to induce an inflammatory response in corresponding inflammatory cells. TNF-α and IL-6 are two kinds of representative pro-inflammatory factors, which produced by LPS-stimulated RAW264.7 macrophage. In our pre-experiments, the toxicity against RAW264.7 macrophagocyte for all title compounds was tested by the MTT assay, and the results were listed in Table 2. The survival rates were above 80% for all BAPs (4-30) at the concentration of 5.0 μM.
# A2780 = assay: Modified MTT cytotoxicity assay, A2780; settings: for SI (selectivity index) A2780: quotient of IC50 for normal (HHL-5) and malignant (A2780) cells
# SMMC-7721 = assay: Modified MTT cytotoxicity assay, SMMC-7721; type: cell-based, Human; settings: for IC50: MTT, 24 h incubation, three replicates; for SI (selectivity index) SMMC-7721: quotient of IC50 for normal (LO2) and malignant (SMMC-7721) cells
# Procedure: as §1
# TNF-α = assay: ELISA of TNF-α release in LPS-stimulated RAW264.7 cells; type: cell-based, mouse; settings: for Inhibition rates against IL-6 and TNF-α cytokine release, average: average of TNF-α and IL-6, 5 μM + LPS, RAW264.7; for Inhibition rate TNF-α: BAPs (5 μM) + LPS (1 μg/mL); for Inhibition rate TNF-α / inhibition at 5 µM: RAW264.7, ELISA; for inhibition at 5 µM: Mus musculus, RAW264.7, BAPs (5 μM) + LPS (1 μg/mL), read-out: Inhibition rate TNF-α
# Procedure: (§2) We tested by inhibiting the secretion of TNF-α and IL-6 to better evaluated the anti-inflammatory effects of BAPs. […] Under the stimulation of LPS (1.0 μg/mL) with RAW264.7 cells, the release of TNF-α and IL-6 was detected. Besides, after treated with BAPs (5.0 μM) and LPS (1.0 μg/mL), the release of TNF-α and IL-6 was measured with an ELISA kit (eBioScience, San Diego, California), respectively. In general terms, pyrrolidine dithiocarbamate (PDTC, 30 μM) or BAP (5.0 μM) was used to pretreat cells for 2 h, respectively. Then, LPS (1.0 μg/mL) was added and cells were incubated for another 22 h. Finally, the culture media were centrifuged at 1000 rpm for 10 min, and the expression levels of TNF-α and IL-6 were determined by ELISA.
# HepG2 = assay: Modified MTT cytotoxicity assay, HepG2; type: cell-based, Human; settings: for SI value, average: average of SI for HepG2 and SMMC-7721; for SI (selectivity index) HepG2: quotient of IC50 for normal (LO2) and malignant (HepG2) cells
# Procedure: as §1
# IL-6 = assay: ELISA of IL-6 release in LPS-stimulated RAW264.7 cells; type: cell-based, mouse; settings: RAW264.7, ELISA; for Inhibition rate IL-6: BAPs (5 μM) + LPS (1 μg/mL); for inhibition at 5 µM: Mus musculus, RAW264.7, BAPs (5 μM) + LPS (1 μg/mL), read-out: Inhibition rate IL-6
# Procedure: as §2
# [1] = Modified MTT cytotoxicity assay, normal heptical cell line LO2; type: cell-based, human; settings: human, LO2 cells (normal hepatic cell line), 24 h incubation
# Procedure: as §1
# [2] = Modified MTT cytotoxicity assay, normal heptical cell line HHL-5; settings: human, HHL-5 cells (normal hepatic cell line)
# [3] = read-out: Cytotoxicity IC50 A549, MTT, non-small cell lung cancer cell line
# [4] = read-out: Cytotoxicity IC50 A2780, MTT, ovarian cancer cell line
# [5] = MTT, 24 h incubation, three replicates, read-out: Cytotoxicity IC50 HepG2
# [6] = average of HepG2 and SMMC-7721, read-out: Cytotoxicity against HCC cells, average
# [7] = Homo sapiens, A549, read-out: Cytotoxicity IC50 A549, MTT, non-small cell lung cancer cell line
# [8] = Homo sapiens, A2780, read-out: Cytotoxicity IC50 A2780, MTT, ovarian cancer cell line
# [9] = Homo sapiens, HepG2, 24 h, MTT, 24 h incubation, three replicates, read-out: Cytotoxicity IC50 HepG2
Structure (SMILES),SI (selectivity index) A549 (A549),IC50 (A549; [3]) [nM],IC50 (LO2) [nM],IC50 (HHL-5) [nM],Survival rate RAW264.7 cell (RAW264.7 cell),SI (selectivity index) A2780 (A2780),IC50 (A2780; [4]) [nM],IC50 (SMMC-7721) [nM],SI (selectivity index) SMMC-7721 (SMMC-7721),IC50 (HepG2; [5]) [nM],SI (selectivity index) HepG2 (HepG2),Inhibition rate IL-6 (IL-6) [%],Inhibition rate TNF-α (TNF-α) [%],other results
O=C1/C(=C/c2ccc(C(F)(F)F)cc2)CN(S(=O)(=O)c2ccc(C(F)(F)F)cc2)C/C1=C\c1ccc(C(F)(F)F)cc1 [BAP 25],41.1,270 ± 30,18300 ± 600,11100 ± 200,87.3% and 87.3 ± 4.2%,39.6,280 ± 30,1300 ± 300,14.1,900 ± 200,20.3,,,"Inhibition rates against IL-6 and TNF-α cytokine release, average (TNF-α): 78.6%; IC50 (HepG2; [6]): 1100 nM; SI value, average (HepG2): 17.2"
O=C1/C(=C/c2ccccc2C(F)(F)F)CN(S(=O)(=O)c2ccccc2)C/C1=C\c1ccccc1C(F)(F)F [BAP 4],3.8,2240 ± 1230,16400 ± 200,,82.2 ± 2.0%,0.2,54000 ± 12000,~8200,2.0,~9200,1.8,70.7 ± 1.3,62.1 ± 4.7,"IC50 (SMMC-7721; listed as 4): 8200 ± 600 nM; IC50 (HepG2; MTT, 24 h incubation, three replicates, listed as 4, read-out: Cytotoxicity IC50 HepG2): 9200 ± 200 nM"
O=C1/C(=C/c2ccc(C(F)(F)F)cc2)CN(S(=O)(=O)c2ccc(F)cc2)C/C1=C\c1ccc(C(F)(F)F)cc1 [BAP 26],70.6,160 ± 50,15700 ± 200,,87.6 ± 1.7%,38.0,297 ± 50,3100 ± 100,5.1,3100 ± 200,5.1,62.8 ± 3.0,66.3 ± 5.3,
N#Cc1ccc(S(=O)(=O)N2C/C(=C\c3ccc(C(F)(F)F)cc3)C(=O)/C(=C/c3ccc(C(F)(F)F)cc3)C2)cc1 [BAP 29],203.7,~81,21500 ± 1500,16500 ± 300,83.4% and 83.4 ± 3.3%,91.7,~180,1300 ± 300,16.5,1700 ± 100,,,,"SI (selectivity), bound stated for A549 and A2780 together (A549; A549 and A2780 vs HHL-5): > 90; IC50 (A549; read-out: Cytotoxicity IC50 A549, MTT, non-small cell lung cancer cell line, listed as 29): 81 ± 4 nM; IC50 (A2780; read-out: Cytotoxicity IC50 A2780, MTT, ovarian cancer cell line, listed as 29): 180 ± 10 nM; Inhibition rates against IL-6 and TNF-α cytokine release, average (TNF-α): 73.4%; IC50 (HepG2; [6]): 1500 nM; SI value, average (HepG2): 14"
CC(=O)Nc1ccc(S(=O)(=O)N2C/C(=C\c3ccc(C(F)(F)F)cc3)C(=O)/C(=C/c3ccc(C(F)(F)F)cc3)C2)cc1 [BAP 30],21.4,98 ± 10,14200 ± 1100,2100 ± 100,92.0 ± 1.3%,16.2,130 ± 20,3100 ± 200,4.6,1800 ± 200,7.9,70.1 ± 1.2,68.3 ± 3.1,
O=C1/C(=C/c2ccccc2C(F)(F)F)CN(S(=O)(=O)c2ccc(C(F)(F)F)cc2)C/C1=C\c1ccccc1C(F)(F)F [BAP 7],3.4,2680 ± 530,17200 ± 200,9100 ± 200,87.3 ± 1.9%,27.6,330 ± 30,~2600,6.6,~2100,8.2,,,"Inhibition rate IL-6 (IL-6; 5 µM): ca. 71.2%; Inhibition rate IL-6 (IL-6; listed as 7, 5 µM): 71.2 ± 1.3%; IC50 (SMMC-7721; listed as 7): 2600 ± 200 nM; Inhibition rate TNF-α (TNF-α; 5 µM): ca. 69.9%; Inhibition rate TNF-α (TNF-α; listed as 7, 5 µM): 69.9 ± 1.1%; IC50 (HepG2; MTT, 24 h incubation, three replicates, listed as 7, read-out: Cytotoxicity IC50 HepG2): 2100 ± 100 nM"
O=C1/C(=C/c2ccc(C(F)(F)F)cc2)CN(S(=O)(=O)c2ccc([N+](=O)[O-])cc2)C/C1=C\c1ccc(C(F)(F)F)cc1 [BAP 24],44.1,170 ± 10,14400 ± 100,7500 ± 600,89.0 ± 1.6%,44.1,170 ± 20,3200 ± 300,4.5,1200 ± 300,12.0,57.3 ± 2.1,65.0 ± 1.8,
Cc1ccc(S(=O)(=O)N2C/C(=C\c3ccc(C(F)(F)F)cc3)C(=O)/C(=C/c3ccc(C(F)(F)F)cc3)C2)cc1 [BAP 23],23.3,150 ± 20,13100 ± 300,3500 ± 200,89.2 ± 3.0%,21.9,160 ± 20,~800,16.4,~1000,13.1,69.2 ± 6.3,78.1 ± 3.2,"IC50 (SMMC-7721; listed as 23): 800 ± 200 nM; IC50 (HepG2; MTT, 24 h incubation, three replicates, listed as 23, read-out: Cytotoxicity IC50 HepG2): 1000 ± 300 nM"
O=C1/C(=C/c2cccc(C(F)(F)F)c2)CN(S(=O)(=O)c2ccc(Cl)cc2)C/C1=C\c1cccc(C(F)(F)F)c1 [BAP 18],,,,,,,,,,,,,,"IC50 (A549; [7]): 150 ± 20 nM; IC50 at 24 h [1]: 14100 ± 100 nM; IC50 [2]: 2200 ± 100 nM; viability at 5 µM (RAW264.7 cell): 85.7 ± 4.2%; inhibition at 5 µM (IL-6): 46.2 ± 2.1%; IC50 (A2780; [8]): 190 ± 20 nM; IC50 (SMMC-7721; Homo sapiens, SMMC-7721, 24 h): 13900 ± 100 nM; inhibition at 5 µM (TNF-α): 50.6 ± 3.2%; IC50 (HepG2; [9]): 5200 ± 100 nM"
O=C1/C(=C/c2ccccc2C(F)(F)F)CN(S(=O)(=O)c2ccc(F)cc2)C/C1=C\c1ccccc1C(F)(F)F [BAP 8],,,,,,,,,,,,,,"IC50 (A549; [7]): 13400 ± 1390 nM; IC50 at 24 h [1]: 13800 ± 1100 nM; IC50 [2]: 11800 ± 200 nM; viability at 5 µM (RAW264.7 cell): 82.1 ± 1.9%; inhibition at 5 µM (IL-6): 51.3 ± 3.3%; IC50 (A2780; [8]): 1440 ± 540 nM; IC50 (SMMC-7721; Homo sapiens, SMMC-7721, 24 h): 8300 ± 200 nM; inhibition at 5 µM (TNF-α): 46.8 ± 4.2%; IC50 (HepG2; [9]): 4000 ± 200 nM"
